Source: patent US10053416B1, “Process for producing long chain amino acids and dibasic acids” (VITAWORKS IP, LLC, priority 2017, dated 2018)
Where a name gives a salt, the structure may show the parent alone.

What was measured:
[1] = Solubility curve in 5% aqueous solution of ammonium hydroxide (FIG. 4); format: physicochemical; conditions: as a function of temperature (FIG. 4)
Text: FIG. 4. Solubility curve of 11-aminoundecanoic acid and dodecanedioic acid in 5% aqueous solution of ammonium hydroxide.
In one embodiment of the present invention, schematically illustrated in FIG. 1, the solution or suspension is further cooled to crystallize the long chain amino acid, which can be recovered by means of solid-liquid separation to provide a mother liquor containing the ammonium or alkylamine salts of long chain dibasic acid and alkanoic acid. […] The three components in the mother liquor, i.e., alkylamine, dodecanedioic acid, and alkanoic acid, can be separated according to one of the following three methods.

[2] = Solubility / phase separation observation in water and aqueous salt solutions; format: physicochemical
Experimental: If there are long chain fatty acids present in the starting material, these fatty acids are precipitated as the ammonium salt, along with the long chain amino acid. In the production of 11-aminoundecanoic acid and dodecanedioic acid from the starting material of castor oil, significant amount of stearic acid is present in the mixed amide derivatives. […] If ammonia or ammonium hydroxide is used as the basic agent to neutralize sulfuric acid, and after more basic agent is added to the mother liquor to a basic pH, alkylamine can only be recovered by extraction. Distillation of the basic solution will remove ammonia instead of alkylamine. […] No phase separation is observed between hexylamine and a solution of ammonium sulfate.

Solubility ([2]; in a solution of alkali salt) | Solubility ([2]; in a solution of ammonium salt, i.e., ammonium sulfate) | Solubility ([2]; in water) | SMILES | Solubility [1]
 |  |  | NCCCCCCCCCCC(=O)O [11-aminoundecanoic acid] | nearly insoluble
 |  |  | O=C(O)CCCCCCCCCCC(=O)O [ammonium salt of dodecanedioic acid, dodecanedioic acid] | soluble and becomes more soluble as temperature increases
insoluble | freely soluble | insoluble | CCCCCCN [hexylamine] | 
